Patent US20230174545A1, “HETEROCYCLIC COMPOUNDS AS BET INHIBITORS” (Nuvation Bio Inc., priority 2020, published 2023)

What was measured:
BRD4-2 = biological target: T1, BRD4-2 (Homo sapiens, UniProt O60885); experiment: Bromodomain and Extraterminal Domain (BET) binding assay (Alpha, Reaction Biology Corp.), BRD4-2; conditions: protein 130 nM, ligand histone H4 peptide (1-21) K5/8/12/16Ac-biotin 70 nM
T1 construct: purchased Reaction Biology Corp
Procedure: (§1) The bromodomain binding assays are performed by Reaction Biology Corp., Malvern, Pa., USA (www.reactionbiology.com). The BET binding assays are conducted in 384 well microplates in assay buffer (50 mM HEPES-HCl, pH 7.5, 100 mM NaCl, 1 mg/ml BSA, 0.05% CHAPS, and 0.5% DMSO) with compounds added as DMSO stocks at a single concentration or with 10-point dose response titrations. BET protein or assay buffer are delivered to the appropriate wells of the microplate. Test compound is then delivered by acoustic technology via a Labcyte Echo550 liquid handler. The microplate is centrifuged for 5 min and pre-incubated for 30 min at RT with gentle shaking. The ligand (histone H4 peptide (1-21) K5/8/12/16Ac-biotin) is delivered and the microplate is again centrifuged for 5 min and allowed to incubate for 30 min at RT with gentle shaking. Donor beads are then added in the absence of light and the microplate is centrifuged and gently shaken. After 5 min, acceptor beads are added in the absence of light and the microplate is centrifuged and gently shaken in the dark for 60 min. The microplate is read using a Perkin Elmer EnSpire Alpha plate reader (λ Ex/λ Em=680/520-620 nm). Percent inhibition is calculated relative to positive and negative controls on a per plate basis. For titration experiments, IC50 values are determined by fitting the percent inhibition versus compound concentration. […]

BRD4-1 = biological target: T2, BRD4-1 (Homo sapiens, UniProt O60885); experiment: Bromodomain and Extraterminal Domain (BET) binding assay (Alpha, Reaction Biology Corp.), BRD4-1; conditions: protein 20 nM, ligand histone H4 peptide (1-21) K5/8/12/16Ac-biotin 20 nM
T2 construct: purchased Reaction Biology Corp
Procedure: as §1

| IC50 (BRD4-2) | IC50 (BRD4-1) | Compound |
| --- | --- | --- |
| 0.7 nM | 2370 nM | CCNC(=O)c1cc2c(=O)n(C)cc(-c3cc(C(C)(C)O)ccc3Oc3c(C)cc(F)cc3C)c2o1 [Compound 1, N-ethyl-7-(2-(4-fluoro-2,6-dimethylphenoxy)-5-(2-hydroxypropan-2-yl)phenyl)-5-methyl-4-oxo-4,5-dihydrofuro[3,2-c]pyridine-2-carboxamide] |
| 3 nM | 4 nM | CCNC(=O)c1cc2c(=O)n(C)cc(-c3cc(NS(=O)(=O)CC)ccc3Oc3ccc(F)cc3F)c2o1 [Compound 65, 7-(2-(2,4-difluorophenoxy)-5-(ethylsulfonamido)phenyl)-N-ethyl-5-methyl-4-oxo-4,5-dihydrofuro[3,2-c]pyridine-2-carboxamide] |
